From paper PMC6017805 (2018) come the findings set out here.

Experiment in all cases: UV-Vis titration (D/Δεapp vs D plot)
Common to all, as to details: phosphate buffer 50 mM pH 7.4 (Figure 2; methods say 100 mM), 25 °C, 4a 50 μM

Assay [1] relates to [Poly(dA)-Poly(dT)] (DNA, polymer) A/T.
For assay [2], the system named is [Poly(dG)-Poly(dC)] (DNA, polymer) G/C.
Assay [3] has as its system AT Box [Poly(dTATAAT)-Poly(dATATTA)] (DNA, polymer) TATAAT/ATTATA.
Assay [4] relates to GC Box [Poly(dGGGCGG)-Poly(dCCCGCC)] (DNA, polymer) GGGCGG/CCGCCC.

Molecules are shown by their SMILES.

Take `N[C@@H](CCCCN1C(=O)c2cccc3cccc(c23)C1=O)C(=O)NCCNC(=O)[C@@H](N)CCCCN1C(=O)c2cccc3cccc(c23)C1=O`: the Kb stood at 9080 M⁻¹ in assay [1], 1150 M⁻¹ in assay [2], 9710 M⁻¹ in assay [3] and 1910 M⁻¹ in assay [4].
